Values joined by “and” are separate entries in the source; they are usually repeats but may differ in a detail not shown here. Equal values may be shown once. “Also recorded” adds a separate entry of the source. Where a name gives a salt, the structure may show the parent alone. Marks after values point to notes of the source that are not given here.
Experiments:
[1] = tested on: female Sprague-Dawley rats; assay: 14-day repeated dose neurotoxicity study, intranasal esketamine HCl (clinical observations, brain histopathology, toxicokinetics); settings: for Abnormal respiration, incidence / Ataxia, incidence / Chromodacryorrhea, incidence / Decreased general activity, incidence / Decubitus, incidence / Increased general activity, incidence / Salivation (out of normal), incidence / audible respiration, incidence / bradypnoea, incidence: 14 days
Excerpt: (§1) For these studies, female specific pathogen free (SPF) Sprague-Dawley rats were used, which were approximately 12 to 14 weeks at start of dosing and weighed between 227 to 293 grams in the single dose study and between 235 to 296 grams in the 14-day repeated dose study. The rats were supplied by Charles River (Sulzfeld, Germany). They were group housed in polysulphone cages with floor area of 3000 cm^2 and Corn Cob (size 12, Eurocob, France) was provided as bedding material. Environmental enrichment existed of a rodent retreat (Bio-Serv, US) and aspen wood blocks (Datesand, UK). […] The animals were fed ad libitum with irradiated R/M-H pelleted maintenance diet from Ssniff (Germany). Hydrogel™ (supplied by Bio-services, Uden, the Netherlands) was provided to the MK-801 dosed rats in the single dose study.
Esketamine HCl was administered into each nostril of female rats at a volume of 50 μl per nostril either once, twice or thrice daily by intranasal instillation for 14 consecutive days at doses of 0 (vehicle), 18, 36 or 54 mg/day. At each instillation, the second nostril was dosed immediately after the first nostril. The interval between subsequent instillations into both nostrils was 5 minutes when dosed 2 or 3 times per day.
The vehicle control group received 3 subsequent intranasal instillations of the vehicle into both nostrils (50 μL per nostril) with 5-minute intervals for 14 consecutive days.
The positive control group received a single subcutaneous injection of (+)MK-801 at 48 hours prior to the necropsy of the vehicle control and esketamine HCl-treated animals.
Each group of main study animals consisted of 12 female rats. Four satellite animals were added to the esketamine HCl-dosed groups of main study animals for TK purposes. The plasma exposure to esketamine was measured in these animals on the first and the last day of dosing at various time points up to and including 24 hours after the first instillation.
Due to logistic constraints associated with the whole body perfusion procedure of the animals at necropsy, a staggered start was applied to the study. Consequently, all 5 groups of main study animals were divided into three subgroups of 4 animals each. For each of these subgroups treatment started on a different day. The perfusion procedure is the is the same as described for the single dose study.
All vehicle- and esketamine HCl-treated animals were sacrificed at 48 hours after the last instillation. […] The brain tissue of the vehicle control-, positive control- and esketamine HCl-treated rats were processed at the same time and handled in the same way in batches of 4 animals per group.
(§2) Furthermore, clinical observations were recorded for the esketamine HCl-dosed rats on the day of dosing at 0 till 5 minutes, 15 and 30 minutes, and at 1, 2, 4, 6 hours post-dose, at the end of the working day and at 24 hours after the last instillation in the single dose study and on the first day of dosing, after one week and towards the end of the dosing period in the repeated dose study. Body weight and body weight gain were measured daily. Food consumption was measured weekly in the repeated dose study.
On the day of terminal kill, a complete physical examination was performed on the rats in fasted condition and body weight was recorded. The surviving animals were anaesthetized by inhalation of an isoflurane (IsoFlo® Zoetis, Belgium)/oxygen mixture and killed by exsanguination via the carotid artery. […] All terminally killed rats or those killed pre-terminally were perfused with 4% paraformaldehyde in the single dose study and with glutaraldehyde 3% in potassium phosphate buffer 0.09 M with 1.4% sucrose in the repeated dose study.
Brain tissue was sampled and processed routinely. The trimmed and embedded tissue was sectioned and stained with hematoxylin-eosin (HE).

[2] = tested on: female Sprague-Dawley rats; assay: Single dose neurotoxicity study, intranasal esketamine HCl (clinical observations, brain histopathology, toxicokinetics)
Excerpt: as §1
Esketamine HCl was instilled intranasally at doses of 0 (vehicle), 36, 54 or 72 mg (expressed as esketamine base) to female rats on a single day. The dose levels were obtained by 2, 3 or 4 subsequent intranasal instillations, respectively, into both nostrils at a volume of 50 μL per nostril. At each instillation, the second nostril was dosed immediately after the first nostril. The interval between subsequent instillations into both nostrils was 5 minutes.
The vehicle control group received 4 subsequent intranasal instillations of the vehicle into both nostrils (50 μL per nostril) with 5-minute intervals.
The injection volume was 5 mL/kg.
The vehicle- and the 36 and 54 mg-dosed groups consisted of 24 animals per group, while the 72 mg-dosed and positive control groups involved 30 animals per group. Four satellite animals were added to the esketamine HCl-dosed groups of main study animals for toxicokinetic (TK) purposes. In these animals the plasma exposure to esketamine was measured on the day of dosing at various time points up to and including 24 hours after the first instillation.
Prior to the perfusion, rats were anesthetized with isoflurane. After injection of 0.1 ml heparin, the blood of the rat was flushed out with a physiological saline solution by intraarterial insertion of a needle in the abdominal aorta. Thereafter the rat was perfused with glutaraldehyde 3% in potassium phosphate 0.09M and 1.4% sucrose. Due to logistic constraints at maximum 30 animals could undergo the whole-body perfusion procedure on a given day. Therefore, a staggered start of treatment was applied to all 5 groups of main study animals. Consequently, subgroups of 4 main study animals of the vehicle- and 36 and 54 mg-dosed groups, and 5 main study animals of the 72 mg-dosed and positive control groups, were dosed on 6 consecutive days, respectively.
The vehicle control, positive control, and esketamine HCl-dosed animals were sacrificed at either 48 hours (i.e., the first 12 or 15 rats per group) or 96 hours after the dose administration time (i.e., the last 12 or 15 rats per group). The brain tissue of the vehicle control-, positive control- and esketamine HCl-treated rats were processed at the same time and handled in the same way in batches of 4 or 5 animals per group.
as §2
On the day of terminal kill, a complete physical examination was performed on the rats in fasted condition and body weight was recorded. The surviving animals were anaesthetized by inhalation of an isoflurane (IsoFlo® Zoetis, Belgium)/oxygen mixture and killed by exsanguination via the carotid artery.

[3] = 14-day neurotoxicity study, 54 mg/day
[4] = single dose neurotoxicity study, 72 mg

CN[C@]1(c2ccccc2Cl)CCCCC1=O [esketamine HCl, (S)-2-(2-chlorophenyl)-2-(methylamino)cyclohexanone hydrochloride]
Abnormal respiration, incidence ([1]; 18 mg/day intranasal): 2/12 | Ataxia, incidence ([1]; 18 mg/day intranasal): 12/12*** | Chromodacryorrhea, incidence ([1]; 18 mg/day intranasal): 0/12 | Decreased general activity, incidence ([1]; 18 mg/day intranasal): 5/12 | Decubitus, incidence ([1]; 18 mg/day intranasal): 0/12 | Increased general activity, incidence ([1]; 18 mg/day intranasal): 12/12*** | Salivation (out of normal), incidence ([1]; 18 mg/day intranasal): 12/12*** | audible respiration, incidence ([1]; 18 mg/day intranasal): 2/12 | bradypnoea, incidence ([1]; 18 mg/day intranasal): 0/12 | Abnormal respiration, incidence ([1]; 36 mg/day intranasal): 11/12*** | Ataxia, incidence ([1]; 36 mg/day intranasal): 12/12*** | Chromodacryorrhea, incidence ([1]; 36 mg/day intranasal): 0/12 | Decreased general activity, incidence ([1]; 36 mg/day intranasal): 12/12*** | Decubitus, incidence ([1]; 36 mg/day intranasal): 2/12 | Increased general activity, incidence ([1]; 36 mg/day intranasal): 12/12*** | Salivation (out of normal), incidence ([1]; 36 mg/day intranasal): 12/12*** | audible respiration, incidence ([1]; 36 mg/day intranasal): 6/12** | bradypnoea, incidence ([1]; 36 mg/day intranasal): 11/12*** | Abnormal respiration, incidence ([1]; 54 mg/day intranasal): 12/12*** | Ataxia, incidence ([1]; 54 mg/day intranasal): 12/12*** | Chromodacryorrhea, incidence ([1]; 54 mg/day intranasal): 0/12 | Decreased general activity, incidence ([1]; 54 mg/day intranasal): 12/12*** | Decubitus, incidence ([1]; 54 mg/day intranasal): 8/12*** | Increased general activity, incidence ([1]; 54 mg/day intranasal): 12/12*** | Salivation (out of normal), incidence ([1]; 54 mg/day intranasal): 12/12*** | audible respiration, incidence ([1]; 54 mg/day intranasal): 6/12** | bradypnoea, incidence ([1]; 54 mg/day intranasal): 12/12*** | Maximum tolerated dose (MTD) upon repeated intranasal administration ([1]; 14-day dose-range finding study (internal study)): 54 mg/day | Brain histopathology (neuronal necrosis / Olney lesions in PCG/RSC) ([1]; 14-day study, esketamine HCl intranasal up to 54 mg/day, (+)MK-801 maleate single 1 mg/kg sc, 48 h after last dose, hydrochloride, 1 mg/kg): absence of neuronal necrosis; also recorded: no histopathological lesions were noted; also recorded: did not; also recorded: No histopathological lesions were found | Mortality ([1]; up to 54 mg/day for 14 days): No test article related mortality occurred | Duration of severely decreased activity with decubitus, bradypnea, ptosis, catalepsy (anesthesia) after last instillation ([2]; 36 mg): 15 to 30 min | Duration of ataxia (with increased activity) after recovery from decreased activity ([2]; 54 mg, hydrochloride): 1.5 to 3 h and 1 to 3 h | Duration of ataxia (with increased activity) after recovery from decreased activity ([2]; 72 mg): up to 3 hours or longer | Abnormal respiration, incidence ([2]; single dose 36 mg intranasal): 22/24*** | Ataxia, incidence ([2]; single dose 36 mg intranasal): 24/24*** | Catalepsy, incidence ([2]; single dose 36 mg intranasal): 20/24*** | Chromodacryorrhea, incidence ([2]; single dose 36 mg intranasal): 0/24 | Decreased general activity, incidence ([2]; single dose 36 mg intranasal): 23/24*** | Decubitus, incidence ([2]; single dose 36 mg intranasal): 23/24*** | Increased general activity, incidence ([2]; single dose 36 mg intranasal): 24/24*** | Narrowed palpebral fissure, incidence ([2]; single dose 36 mg intranasal): 7/24** | Piloerection, incidence ([2]; single dose 36 mg intranasal): 0/24 | Salivation (out of normal), incidence ([2]; single dose 36 mg intranasal): 23/24*** | audible respiration, incidence ([2]; single dose 36 mg intranasal): 10/24*** | bradypnoea, incidence ([2]; single dose 36 mg intranasal): 22/24*** | Abnormal respiration, incidence ([2]; single dose 54 mg intranasal): 22/24*** | Ataxia, incidence ([2]; single dose 54 mg intranasal): 24/24*** | Catalepsy, incidence ([2]; single dose 54 mg intranasal): 23/24*** | Chromodacryorrhea, incidence ([2]; single dose 54 mg intranasal): 0/24 | Decreased general activity, incidence ([2]; single dose 54 mg intranasal): 23/24*** | Decubitus, incidence ([2]; single dose 54 mg intranasal): 23/24*** | Increased general activity, incidence ([2]; single dose 54 mg intranasal): 24/24*** | Narrowed palpebral fissure, incidence ([2]; single dose 54 mg intranasal): 10/24*** | Piloerection, incidence ([2]; single dose 54 mg intranasal): 0/24 | Salivation (out of normal), incidence ([2]; single dose 54 mg intranasal): 24/24*** | audible respiration, incidence ([2]; single dose 54 mg intranasal): 3/24 | bradypnoea, incidence ([2]; single dose 54 mg intranasal): 21/24*** | Abnormal respiration, incidence ([2]; single dose 72 mg intranasal): 30/30*** | Catalepsy, incidence ([2]; single dose 72 mg intranasal): 30/30*** | Chromodacryorrhea, incidence ([2]; single dose 72 mg intranasal): 0/30 | Decreased general activity, incidence ([2]; single dose 72 mg intranasal): 30/30*** | Decubitus, incidence ([2]; single dose 72 mg intranasal): 30/30*** | Increased general activity, incidence ([2]; single dose 72 mg intranasal): 29/30*** | Narrowed palpebral fissure, incidence ([2]; single dose 72 mg intranasal): 22/30*** | Piloerection, incidence ([2]; single dose 72 mg intranasal): 0/30 | Salivation (out of normal), incidence ([2]; single dose 72 mg intranasal): 29/30*** | audible respiration, incidence ([2]; single dose 72 mg intranasal): 2/30 | bradypnoea, incidence ([2]; single dose 72 mg intranasal): 30/30*** | Brain histopathology (neuronal necrosis / Olney lesions in PCG/RSC) ([2]; single dose study, esketamine HCl intranasal up to 72 mg, (+)MK-801 maleate 1 mg/kg sc, 48 and 96 h post-dose, hydrochloride): no morphological evidence of neuronal degeneration; also recorded: histopathological lesions were absent; also recorded: No signs of neuronal necrosis were found; also recorded: no neuropathological lesions were observed | Mortality ([2]; single intranasal dose 72 mg, within 30 minutes after 4 instillations): two main study animals and two satellite TK animals died | Mortality ([2]; single intranasal dose up to 54 mg): No test article related mortality

CN[C@]1(c2ccccc2Cl)CCCCC1=O [esketamine, (S)-2-(2-chlorophenyl)-2-(methylamino)cyclohexanone]
AUC-based safety margin compared with the maximum 84 mg clinical dose [1, 3]: ~11 fold | Cmax-based safety margin compared with the maximum 84 mg clinical dose [1, 3]: approximately 17 fold | AUC-based safety margin compared with the maximum 84 mg clinical dose [2, 4]: ~86 fold | Cmax-based safety margin compared with the maximum 84 mg clinical dose [2, 4]: approximately 60 fold
